Tests used:
AKR1C3 [1] = target: T1, AKR1C3 (Homo sapiens, UniProt P42330); test: AKR1C3 enzyme inhibition assay (coumberone to coumberol fluorescence); type: biochemical; set-up: GST (cleaved yes); made in house; host or cells: E. coli; details: mean values; 10 μM NADPH, 0.3 μM coumberone, 3 h at room temperature
T1 sequence (P42330 1-323): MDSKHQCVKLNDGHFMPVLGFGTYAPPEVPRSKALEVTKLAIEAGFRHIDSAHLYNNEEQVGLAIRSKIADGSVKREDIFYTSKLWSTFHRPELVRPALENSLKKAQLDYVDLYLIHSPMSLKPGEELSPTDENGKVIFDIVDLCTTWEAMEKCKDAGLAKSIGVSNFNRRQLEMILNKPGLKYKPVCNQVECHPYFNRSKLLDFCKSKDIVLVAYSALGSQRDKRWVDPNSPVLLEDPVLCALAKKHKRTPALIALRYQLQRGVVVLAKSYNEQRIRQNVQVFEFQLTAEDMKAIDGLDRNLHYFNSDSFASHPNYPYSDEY
Method: The AKR1C3-inhibitory action of the substances of this invention was measured in the AKR1C3 assay described in the paragraphs which follow.
Essentially, the enzyme activity is measured by quantifying the coumberol formed from coumberone (Halim, M., Yee, D., J., and Sames, D., J. A., M. (2008). Chem Soc 130, 14123-14128 and Yee, D., J., Balsanek, V., Bauman, D., R., Penning, T., M., and Sames, D. (2006). Proc Natl Acad Sci USA, 103, 13304-13309). In this assay, the increase in the highly fluorescent coumberol can be determined by NADPH (nicotinamide adenine dinucleotide phosphate)-dependent reduction of the nonfluorescent coumberone by AKR1C3.
The enzyme used was recombinant human AKR1C3 (aldo-keto reductase family 1 member C3) (GenBank Accession No. NM_003739). This was expressed as the GST (glutathione S-transferase) fusion protein in E. coli and purified by means of glutathione-Sepharose affinity chromatography. The GST was removed by thrombin digestion with subsequent size exclusion chromatography (Dufort, I., Rheault, P., Huang, X., F., Soucy, P., and Luu-The, V. (1999). Endocrinology,140, 568-574).
For the assay, 40-50 nl of a 100-fold concentrated solution of the test substance in DMSO were pipetted into a black low-volume 384-well microtitre plate (Greiner Bio-One, Frickenhausen, Germany), 2-2.5 μl of a solution of AKR1C3 in assay buffer [50 mM potassium phosphate buffer pH 7, 1 mM DTT, 0.0022% (w/v) Pluronic F-127, 0.01% BSA (w/v) and protease inhibitor cocktail (complete, EDTA-free Protease Inhibitor Cocktail from Roche)] were added and the mixture was incubated for 20 min, in order to enable preliminary binding of the substances to the enzyme prior to the enzyme reaction. Then the enzyme reaction was started by adding 2-2.5 μl of a solution of NADPH and coumberone in assay buffer (final assay concentration was 10 μM NADPH and 0.3 μM coumberone) and the resulting mixture was incubated at room temperature for 3 h. Typical concentrations were depending on the linear range of the enzyme reaction during the reaction time about 1 nM. The reaction was stopped by adding 2 μl of a stop solution consisting of the AKR1C3 inhibitor EM-1404 to a final concentration of 1 μM. Subsequently, the fluorescence of coumberol was measured at 520 nm (excitation at 380 nm) with a suitable measuring instrument (Pherastar, BMG). […] The data were normalized (enzyme+coumberon substrate in assay buffer=0% inhibition; coumberone substrate only in assay buffer=100% inhibition). Substances were usually tested at 11 different concentrations on the same microtiter plate in a range between 96.8 pM to 20 μM (20 μM, 5.9 μM, 1.7 μM, 0.5 μM, 0.15 μM, 44 nM, 12.9 nM, 3.8 nM, 1.1 nM, 0.3 nM and 96.8 pM). The dilutions were carried out on a 100 fold concentrated solution by serial dilution in duplicates. From the obtained data IC50 values were calculated by a 4-parameter fit.

AKR1C3 [2] = target: T1, AKR1C3; test: AKR1C3 inhibition in a cell-based system (HEK293 cells transfected with AKR1C3 expression plasmid, coumberon substrate); set-up: expressed in transfected cells; host or cells: HEK293 cells (ATCC); details: mean values; HEK293 cells transfected with AKR1C3, coumberon 6×10^−6M, 3 h; read-out: Cellular AKR1C3 inhibition IC50
Method: The inhibition of AKR1C3 by the substances described in this invention was measured in a cell-based assay using coumberon as the substrate for AKR1C3 (Halim, M., Yee, D., J., and Sames, D., J. (2008). Am Chem Soc, 130, 14123-14128 and Yee, D., J., Balsanek, V., Bauman, D., R., Penning, T., M., and Sames, D. (2006), Proc Natl Acad Sci USA 103, 13304-13309) (cf. Example 48).
The cell system used was HEK293 cells (ATCC, USA) (DMEM/F12, 10% FCS, 2 mM L-Glutamine, PSG). The cells were transfected with an AKR1C3 expression plasmid (pCMV6-AC-AKR1C3, GenBank Accession No. NM 003739.4), harvested after 24 hours and subsequently frozen. For assays, the frozen cells were thawed in assay medium (DMEM/F12 w/o phenolred, 0.005% Tween, 10% FCS, 2 mM L-Glutamine, PSG). Cells were seeded at 2500 cells/well into 384-well low volume or 1536-well plates (Greiner Bio-One, Frickenhausen, Germany) that contained 40-50 nl of a 100 fold concentrated compound solution in DMSO. After incubation at room temperature for 15 minutes, coumberon in PBS was added to a final concentration of 6×10^−6M. Following a 3 h incubation at room temperature, the reaction was stopped by lysing the cells with 0.4% Triton X-100. Coumberol fluorescence intensity was measured at 520 nm (excitation 380 nm) with a suitable measuring instrument (Pherastar, BMG). […] The data were normalized (transfected cells+coumberon=0% inhibition; no cells+coumberone=100% inhibition). Substances were usually tested at 11 different concentrations on the same microtiter plate in a range between 96.8 pM to 20 μM (20 μM, 5.9 μM, 1.7 μM, 0.5 μM, 0.15 μM, 44 nM, 12.9 nM, 3.8 nM, 1.1 nM, 0.3 nM and 96.8 pM). The dilutions were carried out on a 100 fold concentrated solution by serial dilution in duplicates. From the obtained data IC50 values were calculated by a 4-parameter fit.

| SMILES | IC50 (AKR1C3 [1]) [µM] | IC50 (AKR1C3 [2]) [µM] |
| --- | --- | --- |
| C[C@]12CC[C@@H]3c4ccc(S(C)(=N)=O)cc4CC[C@H]3[C@@H]1CC=C2c1cncc(F)c1 (stereo partly shown) [Example 46, 17-(5-fluoropyridin-3-yl)-3-(S-methylsulfonimidoyl)estra-1(10),2,4,16-tetraene] | 0.0022 | 0.03 |
| COC(=O)CCCS(=O)(=O)c1ccc2c(c1)CC[C@@H]1[C@@H]2CC[C@]2(C)C(c3cncc(F)c3)=CC[C@@H]12 [Example 09, methyl 4-{[17-(5-fluoropyridin-3-yl)estra-1(10),2,4,16-tetraen-3-yl]sulfonyl}butanoate] | 0.0077 | 0.05 |
| C[C@]12CC[C@@H]3c4ccc(S(=O)(=O)CCCC(=O)O)cc4CC[C@H]3[C@@H]1CC=C2c1cncc(Cl)c1 [Example 19, 4-{[17-(5-chloropyridin-3-yl)estra-1,3,5(10),16-tetraen-3-yl]sulfonyl}butanoic acid] | 0.0017 | 0.15 |
| Cc1ccc(C2=CC[C@H]3[C@@H]4CCc5cc(S(=O)(=O)CCCC(=O)O)ccc5[C@H]4CC[C@]23C)cn1 [Example 15, 4-{[17-(6-methylpyridin-3-yl)estra-1,3,5(10),16-tetraen-3-yl]sulfonyl}butanoic acid] | 0.073 | 3.18 |
| CN(C(=O)CCC(=O)O)c1ccc2c(c1)CC[C@@H]1[C@@H]2CC[C@]2(C)C(c3cncc(F)c3)=CC[C@@H]12 [Example 35, 4-{[17-(5-fluoropyridin-3-yl)estra-1(10),2,4,16-tetraen-3-yl](methyl)amino}-4-oxobutanoic acid] | 0.0032 | 0.21 |
| CN(CCC(=O)O)S(=O)(=O)c1ccc2c(c1)CC[C@@H]1[C@@H]2CC[C@]2(C)C(c3cncc(F)c3)=CC[C@@H]12 [Example 02, N-{[17-(5-fluoropyridin-3-yl)estra-1(10),2,4,16-tetraen-3-yl]sulfonyl}-N-methyl-beta-alanine] | 0.0035 | 0.38 |
| C[C@]12CC[C@@H]3c4ccc(NC(=O)NCCC(=O)O)cc4CC[C@H]3[C@@H]1CC=C2c1cncc(F)c1 [Example 42, N-{[17-(5-fluoropyridin-3-yl)estra-1(10),2,4,16-tetraen-3-yl]carbamoyl}-beta-alanine] | 0.0083 | 8.09 |
| CN(C(=O)CCc1nn[nH]n1)c1ccc2c(c1)CC[C@@H]1[C@@H]2CC[C@]2(C)C(c3cncc(F)c3)=CC[C@@H]12 [Example 33, N-[17-(5-fluoropyridin-3-yl)estra-1(10),2,4,16-tetraen-3-yl]-N-methyl-3-(2H-tetrazol-5-yl)propanamide] | 0.0025 | 0.26 |
| COc1cncc(C2=CC[C@H]3[C@@H]4CCc5cc(S(=O)(=O)CCCC(=O)O)ccc5[C@H]4CC[C@]23C)c1 [Example 16, 4-{[17-(5-methoxypyridin-3-yl)estra-1,3,5(10),16-tetraen-3-yl]sulfonyl}butanoic acid] | 0.0097 | 0.54 |
| C[C@]12CC[C@@H]3c4ccc(NS(=O)(=O)CCC(=O)O)cc4CC[C@H]3[C@@H]1CC=C2c1cncc(F)c1 [Example 39, 3-{[17-(5-fluoropyridin-3-yl)estra-1(10),2,4,16-tetraen-3-yl]sulfamoyl}propanoic acid] | 0.003 | 5.1 |
| CC(=O)NS(=O)(=O)CCC(=O)Nc1ccc2c(c1)CC[C@@H]1[C@@H]2CC[C@]2(C)C(c3cncc(F)c3)=CC[C@@H]12 [Example 29, 3-(acetylsulfamoyl)-N-[17-(5-fluoropyridin-3-yl)estra-1(10),2,4,16-tetraen-3-yl]propanamide] | 0.0032 | 5 |
| CN(CCC(=O)O)S(=O)(=O)c1ccc2c(c1)CC[C@@H]1[C@@H]2CC[C@]2(C)C(c3cncnc3)=CC[C@@H]12 [Example 05, N-methyl-N-{[17-(pyrimidin-5-yl)estra-1(10),2,4,16-tetraen-3-yl]sulfonyl}-beta-alanine] | 0.0917 | 2.71 |
| C[C@]12CC[C@@H]3c4ccc(S(=O)(=O)CCCCO)cc4CC[C@H]3[C@@H]1CC=C2c1cncc(F)c1 [Example 21, 4-{[17-(5-fluoropyridin-3-yl)estra-1(10),2,4,16-tetraen-3-yl]sulfonyl}butan-1-ol] | 0.0053 | 0.04 |
| Cc1cc(C2=CC[C@H]3[C@@H]4CCc5cc(NC(=O)CCC(=O)O)ccc5[C@H]4CC[C@]23C)cnn1 [Example 45, 4-{[17-(6-methylpyridazin-4-yl)estra-1(10),2,4,16-tetraen-3-yl]amino}-4-oxobutanoic acid] | 0.0018 | 0.98 |
| C[C@]12CC[C@@H]3c4ccc(NC(=O)CCc5nn[nH]n5)cc4CC[C@H]3[C@@H]1CC=C2c1cncc(F)c1 [Example 32, N-[17-(5-fluoropyridin-3-yl)estra-1(10),2,4,16-tetraen-3-yl]-3-(2H-tetrazol-5-yl)propanamide] | 0.0118 | 2.17 |
| CN(CCCC(=O)O)c1ccc2c(c1)CC[C@@H]1[C@@H]2CC[C@]2(C)C(c3cncc(F)c3)=CC[C@@H]12 [Example 44, 4-{[17-(5-fluoropyridin-3-yl)estra-1(10),2,4,16-tetraen-3-yl](methyl)amino}butanoic acid] | 0.0185 | 1.12 |
| CC(=O)NS(=O)(=O)CCC(=O)N(C)c1ccc2c(c1)CC[C@@H]1[C@@H]2CC[C@]2(C)C(c3cncc(F)c3)=CC[C@@H]12 [Example 31, 3-(acetylsulfamoyl)-N-[17-(5-fluoropyridin-3-yl)estra-1(10),2,4,16-tetraen-3-yl]-N-methylpropanamide] | 0.0041 | 1.54 |
